Source: patent US9120749B2, “Quinoline derivatives and MELK inhibitors containing the same” (ONCOTHERAPY SCIENCE, INC., priority 2010, dated 2015)
Where a name gives a salt, the structure may show the parent alone. Read-outs that look alike come from different tables or passages of the source.

Experiments:
[1] = target: MELK (Homo sapiens, UniProt Q14680); experiment: Kinase assay: MELK activity, phosphorylation of FITC-labeled histone H3 peptide measured by IMAP fluorescence polarization; type: biochemical; details: read-out: IC50 (μM) (kinase assay)
Procedure, shortened: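 FP readout: FITC-histone H3 peptide phosphorylation, read 0.5 h (RT) after stopping with 3x volume of IMAP progressive binding solution. Final DMSO 1%.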

[2] = system: A549 cells; experiment: Cell-based assay: anti-proliferative activity, Cell Counting Kit-8, 72 hours (A549); details: Homo sapiens, A549, 72 h, 72 hours
Procedure, shortened: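 A549 cells seeded in 96-well plates and exposed to candidate inhibitors for 72 hours. Growth measured with Cell Counting Kit-8; IC50 values calculated from the dose response.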

[3] = system: 22Rv1 cells; experiment: Cell-based assay: anti-proliferative activity, Cell Counting Kit-8, 72 hours (22Rv1); details: Homo sapiens, 22Rv1, 72 h
[4] = system: T47D cells; experiment: Cell-based assay: anti-proliferative activity, Cell Counting Kit-8, 72 hours (T47D); details: Homo sapiens, T47D, 72 h
Procedure, shortened: (§1)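 Cellular growth is read by CCK-8 colorimetric kit 72 h after inhibitor addition to seeded cells, and IC50 values are derived from the resulting data; MELK protein levels in these lines are checked beforehand by immunoblotting whole crude lysate.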

[5] = system: HT-1197 cells; experiment: Cell-based assay: anti-proliferative activity, Cell Counting Kit-8, 72 hours (HT-1197, negative control without MELK expression); details: Homo sapiens, HT1197, 72 h, HT1197 cells (negative control, no MELK expression), 72 hours
Procedure, shortened: as §1

[6] = system: DU4475 cells; experiment: Cell-based assay: anti-proliferative activity, Cell Counting Kit-8, 72 hours (DU4475); details: Homo sapiens, DU-4475, 72 h
[7] = MELK kinase assay, IMAP fluorescence polarization, 50 micro-M ATP

Sequence of MELK (Q14680 whole entry, looked up): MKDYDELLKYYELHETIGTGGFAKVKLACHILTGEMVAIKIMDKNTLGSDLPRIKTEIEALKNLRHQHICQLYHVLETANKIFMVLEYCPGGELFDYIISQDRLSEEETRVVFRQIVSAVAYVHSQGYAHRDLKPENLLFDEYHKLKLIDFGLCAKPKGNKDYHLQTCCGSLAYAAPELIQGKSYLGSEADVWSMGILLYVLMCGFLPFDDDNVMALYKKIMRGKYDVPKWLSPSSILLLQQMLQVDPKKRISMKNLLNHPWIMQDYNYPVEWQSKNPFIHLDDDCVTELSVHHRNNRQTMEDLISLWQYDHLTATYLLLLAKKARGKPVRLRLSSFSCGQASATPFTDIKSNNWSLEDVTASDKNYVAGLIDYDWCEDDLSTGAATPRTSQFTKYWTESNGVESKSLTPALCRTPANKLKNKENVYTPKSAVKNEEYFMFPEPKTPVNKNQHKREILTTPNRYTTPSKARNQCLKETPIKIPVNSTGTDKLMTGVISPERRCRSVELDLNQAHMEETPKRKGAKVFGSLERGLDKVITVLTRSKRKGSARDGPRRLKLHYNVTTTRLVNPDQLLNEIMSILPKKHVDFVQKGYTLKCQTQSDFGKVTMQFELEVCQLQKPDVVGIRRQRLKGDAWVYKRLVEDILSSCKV

| Compound | IC50 [1] [µM] | IC50 [2] [µM] | IC50 [3] [µM] | IC50 [4] [µM] | IC50 [5] [µM] | IC50 [6] [µM] | IC50 [1, 7] [µM] |
| --- | --- | --- | --- | --- | --- | --- | --- |
| CNC1CCN(c2ccc(Nc3c(C(C)=O)cnc4ccc(-c5cc(F)c(O)c(Cl)c5)cc34)cn2)C1 (stereo not drawn) [Example 785, 1-(6-(3-chloro-5-fluoro-4-hydroxyphenyl)-4-((6-(3-(methylamino)pyrrolidin-1-yl)pyridin-3-yl)amino)quinolin-3-yl)ethanone trihydrochloride] | 0.0056 | 0.094 | 0.076 | 0.035 | 1.3 | 0.074 | – |
| CNC1CCCN(c2ccc(Nc3c(C(C)=O)cnc4ccc(-c5cc(F)c(O)c(Cl)c5)cc34)cn2)C1 (stereo not drawn) [Example 815, 1-(6-(3-chloro-5-fluoro-4-hydroxyphenyl)-4-((6-(3-(methylamino)piperidin-1-yl)pyridin-3-yl)amino)quinolin-3-yl)ethanone trihydrochloride] | – | 0.041 | 0.034 | 0.016 | 0.052 | 0.041 | 0.0018 |
| CNC1CCN(c2ccc(Nc3c(C(=O)C4CC4)cnc4ccc(-c5cc(F)c(O)c(Cl)c5)cc34)cn2)C1 (stereo not drawn) [Example 789, (6-(3-chloro-5-fluoro-4-hydroxyphenyl)-4-((6-(3-(methylamino)pyrrolidin-1-yl)pyridin-3-yl)amino)quinolin-3-yl)(cyclopropyl)methanone trihydrochloride] | 0.0028 | 0.076 | 0.077 | 0.039 | 0.8 | 0.053 | – |
| CC(=O)c1cnc2ccc(-c3cc(F)c(O)c(Cl)c3)cc2c1N[C@H]1CC[C@H](CN2CCC(N)C2)CC1 (stereo partly drawn) [Example 786, 1-(4-(1R,4R)-4-((3-aminopyrrolidin-1-yl)methyl)cyclohexylamino)-6-(3-chloro-5-fluoro-4-hydroxyphenyl)quinolin-3-yl)ethanone hydrochloride] | 0.0031 | 0.96 | 0.17 | 0.07 | 10 | 0.23 | – |
| CC(=O)c1cnc2ccc(-c3cc(F)c(O)c(Cl)c3)cc2c1N[C@H]1CC[C@H](CN2CCN(C)CC2)CC1 [Example 781, 1-(6-(3-chloro-5-fluoro-4-hydroxyphenyl)-4-(1R,4R)-4-((4-methylpiperazin-1-yl)methyl)cyclohexylamino)quinolin-3-yl)ethanone hydrochloride] | 0.013 | 0.2 | 0.34 | 0.1 | 3.3 | 0.19 | – |
| CC(=O)c1cnc2ccc(-c3cc(F)c(O)c(Cl)c3)cc2c1NC1CCC(C(=O)N2CCN(C)CC2)CC1 (stereo not drawn) [Example 849, 1-(6-(3-chloro-5-fluoro-4-hydroxyphenyl)-4-(4-(4-methylpiperazine-1-carbonyl)cyclohexylamino)quinolin-3-yl)ethanone hydrochloride] | – | 1.3 | 1 | 0.47 | 4.5 | 1 | 0.018 |
| COc1cc(-c2ccc3ncc(C(C)=O)c(N[C@H]4CC[C@H](CN5CCC[C@@H]5CO)CC4)c3c2)cc(Cl)c1O [Example 811] | 0.0027 | 0.28 | 0.45 | 0.49 | 5.4 | 0.38 | – |
| CC(=O)c1cnc2ccc(-c3cc(F)c(O)c(Cl)c3)cc2c1Nc1ccc(N2CCC(N)C2)nc1 (stereo not drawn) [Example 773, 1-(4-(6-(3-aminopyrrolidin-1-yl)pyridin-3-ylamino)-6-(3-chloro-5-fluoro-4-hydroxyphenyl)quinolin-3-yl)ethanone] | 0.006 | 0.028 | 0.0094 | 0.0042 | 0.7 | 0.017 | – |
| CNC1CCN(c2ccc(Nc3c(C(=O)C4CC4)cnc4ccc(-c5cc(Cl)c(O)c(Cl)c5)cc34)cn2)C1 (stereo not drawn) [Example 804, cyclopropyl(6-(3,5-dichloro-4-hydroxyphenyl)-4-((6-(3-(methylamino)pyrrolidin-1-yl)pyridin-3-yl)amino)quinolin-3-yl)methanone trihydrochloride] | 0.002 | 0.17 | 0.1 | 0.088 | 1.4 | 0.042 | – |
| CN(C)CCN1CCC(Nc2c(C(=O)C3CC3)cnc3ccc(-c4cc(F)c(O)c(Cl)c4)cc23)CC1 [Example 822, (6-(3-chloro-5-fluoro-4-hydroxyphenyl)-4-(1-(2-(dimethylamino)ethyl)piperidin-4-ylamino)quinolin-3-yl)(cyclopropyl)methanone] | – | 0.48 | 0.43 | 0.29 | 2.5 | 0.16 | 0.0031 |
| CC(=O)c1cnc2ccc(-c3cc(F)c(O)c(Cl)c3)cc2c1Nc1cnn(C2CCN(C)C2)c1 (stereo not drawn) [Example 813, 1-(6-(3-chloro-5-fluoro-4-hydroxyphenyl)-4-((1-(1-methylpyrrolidin-3-yl)-1H-pyrazol-4-yl)amino)quinolin-3-yl)ethanone dihydrochloride] | – | 0.25 | 0.11 | 0.07 | 0.75 | 0.054 | 0.0021 |
| CC(=O)c1cnc2ccc(-c3cc(F)c(O)c(Cl)c3)cc2c1NC1CCN(CCN(C)C)CC1 [Example 821, 1-(6-(3-chloro-5-fluoro-4-hydroxyphenyl)-4-(1-(2-(dimethylamino)ethyl)piperidin-4-ylamino)quinolin-3-yl)ethanone] | – | 0.59 | 0.25 | 0.23 | 3.3 | 0.17 | 0.0053 |
| CC(=O)c1cnc2ccc(-c3cc(F)c(O)c(Cl)c3)cc2c1Nc1ccc(N2CCC(N(C)C)C2)nc1 (stereo not drawn) [Example 853, 1-(6-(3-chloro-5-fluoro-4-hydroxyphenyl)-4-((6-(3-(dimethylamino)pyrrolidin-1-yl)pyridin-3-yl)amino)quinolin-3-yl)ethanone] | – | 0.45 | 0.65 | 0.2 | 10 | 0.38 | 0.018 |
| CCN(C)C[C@H]1CC[C@H](Nc2c(C(C)=O)cnc3ccc(-c4cc(F)c(O)c(Cl)c4)cc23)CC1 [Example 845] | – | 0.14 | 0.11 | 0.063 | 1.4 | 0.069 | 0.00204 |
| O=C(c1cnc2ccc(-c3cc(F)c(O)c(F)c3)cc2c1Nc1ccc(CN2CCCC2)nc1)C1CC1 [Example 795, cyclopropyl(6-(3,5-difluoro-4-hydroxyphenyl)-4-(6-(pyrrolidin-1-ylmethyl)pyridin-3-ylamino)quinolin-3-yl)methanone] | 0.035 | 0.34 | 0.83 | 0.51 | 3.5 | 0.31 | – |
| CN1CCN(CCc2cccc(Nc3c(C(=O)C4CC4)cnc4ccc(-c5cc(Cl)c(O)c(Cl)c5)cc34)c2)CC1 [Example 829, cyclopropyl(6-(3,5-dichloro-4-hydroxyphenyl)-4-(3-(2-(4-methylpiperazin-1-yl)ethyl)phenylamino)quinolin-3-yl)methanone] | – | 0.087 | 0.23 | 0.7 | 5.7 | 0.057 | 0.0051 |
